ChEMBL document CHEMBL3867459, “A cell-based approach to characterize antimicrobial compounds through kinetic dose response” (Bioorg Med Chem, 2016)
Converted amounts (≈) assume the structure as drawn.

Legend:
Escherichia coli [1] = experiment: Antibacterial activity against Escherichia coli K-12 BW25113 measured every 10 mins after 24 hrs in absence of biotin; assay type: functional
Escherichia coli [2] = experiment: Antibacterial activity against Escherichia coli K-12 BW25113 measured every 10 mins after 24 hrs in presence of biotin; assay type: functional
Escherichia coli [3] = experiment: Inhibition of Escherichia coli His-tagged bioA at 1 uM using KAPA as substrate after 20 mins in presence of SAM relative to control
[4] = Chemical stability assessed as compound decomposition in double distilled water at 40 ug/ml at pH 7.4 after 24 hrs by HPLC analysis; assay type: physicochemical; settings: buffer, pH 7.4, 24 h

MIC (Escherichia coli [1]) | MIC (Escherichia coli [2]) | inhibition (Escherichia coli [3]) | Stability [4] | Structure (SMILES)
256 µg/mL (≈ 2410 µM) | 256 µg/mL | 20% | – | NNC(=O)CS
– | – | – | Unstable | S=C1SCN(Cc2cccnc2)CN1Cc1cccnc1
128 µg/mL (≈ 1730 µM) | 128 µg/mL | 7% | – | CC(=O)NN
16 µg/mL (≈ 73.8 µM) | > 256 µg/mL | 63% | – | NNC(=O)CSc1ccccc1Cl
16 µg/mL (≈ 81.5 µM) | > 256 µg/mL | 81% | – | Cc1ccccc1SCC(=O)NN
64 µg/mL (≈ 533 µM) | 64 µg/mL | 50% | – | CSCC(=O)NN
8 µg/mL (≈ 35.2 µM) | > 256 µg/mL | 100% | – | NNC(=O)CSc1ccccc1[N+](=O)[O-]
– | – | – | Unstable | O=C1C=CC(=O)N1Cc1cccs1

Structure (SMILES) | MIC (Escherichia coli [1]) | MIC (Escherichia coli [2]) | inhibition (Escherichia coli [3]) | Stability [4]
O=[N+]([O-])/C=C/c1cccc(F)c1 | – | – | – | Unstable
